These results are taken from patent US6197798A, “Amino-benzocycloalkane derivatives” (Novartis AG, priority 1999, dated 2001).

For orientation: IC50 means the concentration needed to halve the response being measured. A lower IC50 goes with higher potency.

Test [1] has as its system apolipoprotein B (Apo B) secretion, Hep G2 cells. Kind of test: inhibition of the cellular secretion of Apo B (Hep G2 cells, ELISA). Type of test: cell-based. As to conditions: Homo sapiens, HepG2, 24 h, secreted Apo B by ELISA. The protocol: The inhibition of the cellular secretion of Apo B is determined as follows:
Hep G2 cells are maintained in T-75 culture flasks (Corning) in Dulbecco's modified Eagles Medium (DMEM; Gibco-BRL) supplemented with 10% fetal calf serum Gibco-BRL) in a humidified atmosphere containing 5% carbon dioxide until they are confluent. For testing compounds, Hep G2 cells from the T-75 maintenance flasks are harvested and seeded in 96-well culture plates (Corning) and are grown for 72 hours (approximately 80% confluent). Test compound is dissolved at 1 mg/ml (w/v;1-5 mM) in dimethyl sulfoxide DMSO; Sigma) as stock solution. Prior to use, the stock solution of compound is diluted to 133 μM with DMSO and diluted further with growth medium (DMEM containing 10% fetal calf serum) to obtain 1 μM of compound in 100 μL of growth medium. 100 μL of growth medium containing the test compound is added to separate wells of a 96-well culture plate containing Hep G2 cells. For testing dose response of compound, a stock solution of test compound in DMSO is made at 665 μM and various dilutions from this solution are made in growth medium to obtain range of concentration of compound from 0.01 μM to 5 μM in 100 μL of growth medium. 100 μL of the growth medium containing different concentrations of test compound is added to separate wells containing Hep G2 cells. Twenty-four hours later, growth medium is collected and assayed by specific ELISA for apolipoprotein B (Apo B). At the same time Hep G2 cells from wells are assayed for protein (BioRad; cat. # 500-0006) and/or cell viability (Promega; CellTiter 96 Aqueous, cat. # G3581). Inhibitors are identified as compounds that decrease Apo B secretion into the medium without decreasing the total cellular protein and/or cell viability. […] Absorbance of each well is read at 405 nm using a Beckman Biomek workstation. […]
On the technique in general: An ELISA detects its analyte on a solid surface through an enzyme-linked reagent.

Test [2] concerns the target T1, rat MTP (microsomal triglyceride transfer protein) (Rattus norvegicus, UniProt D4A1W8).
T1 construct: homogenate (120 g/210 mL) of rat liver; from tissue; host or cells: rat liver microsomes, deoxycholate-released soluble protein
T1 sequence (D4A1W8 22-896): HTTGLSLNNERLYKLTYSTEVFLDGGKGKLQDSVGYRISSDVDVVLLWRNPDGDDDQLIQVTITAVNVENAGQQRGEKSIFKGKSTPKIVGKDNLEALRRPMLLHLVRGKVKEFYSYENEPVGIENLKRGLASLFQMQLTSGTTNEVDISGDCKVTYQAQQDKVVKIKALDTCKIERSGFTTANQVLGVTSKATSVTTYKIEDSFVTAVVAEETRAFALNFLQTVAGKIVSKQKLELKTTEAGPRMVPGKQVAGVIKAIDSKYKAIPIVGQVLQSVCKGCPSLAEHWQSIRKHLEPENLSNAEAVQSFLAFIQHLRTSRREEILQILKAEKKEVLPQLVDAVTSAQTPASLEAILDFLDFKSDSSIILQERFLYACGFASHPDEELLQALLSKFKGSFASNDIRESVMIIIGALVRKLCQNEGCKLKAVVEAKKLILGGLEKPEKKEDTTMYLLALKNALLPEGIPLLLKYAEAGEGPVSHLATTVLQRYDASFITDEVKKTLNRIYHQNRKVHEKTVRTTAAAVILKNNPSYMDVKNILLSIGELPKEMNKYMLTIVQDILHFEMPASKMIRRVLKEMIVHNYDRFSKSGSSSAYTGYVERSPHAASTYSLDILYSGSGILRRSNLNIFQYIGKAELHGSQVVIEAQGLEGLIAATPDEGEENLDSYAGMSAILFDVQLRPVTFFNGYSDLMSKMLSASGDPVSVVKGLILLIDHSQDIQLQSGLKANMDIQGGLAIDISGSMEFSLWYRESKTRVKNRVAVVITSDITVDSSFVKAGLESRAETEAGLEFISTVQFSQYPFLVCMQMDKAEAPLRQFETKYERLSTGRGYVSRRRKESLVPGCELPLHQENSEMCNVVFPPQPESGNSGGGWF
T1 sequence (P04785 20-509 partner): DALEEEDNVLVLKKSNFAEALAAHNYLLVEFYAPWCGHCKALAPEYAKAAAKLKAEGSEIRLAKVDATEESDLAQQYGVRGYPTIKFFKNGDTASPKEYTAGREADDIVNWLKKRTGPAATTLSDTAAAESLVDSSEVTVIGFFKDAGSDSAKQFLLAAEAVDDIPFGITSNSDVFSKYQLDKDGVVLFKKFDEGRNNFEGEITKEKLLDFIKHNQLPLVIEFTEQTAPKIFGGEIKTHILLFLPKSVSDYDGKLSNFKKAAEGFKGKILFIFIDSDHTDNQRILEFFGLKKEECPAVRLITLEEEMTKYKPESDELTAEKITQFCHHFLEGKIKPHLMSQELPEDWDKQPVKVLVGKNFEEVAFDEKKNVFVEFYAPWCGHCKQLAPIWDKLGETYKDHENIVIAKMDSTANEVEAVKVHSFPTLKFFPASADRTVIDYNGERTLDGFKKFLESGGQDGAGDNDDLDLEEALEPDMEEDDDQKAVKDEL
Kind of test: inhibition of MTP (triglyceride transfer from donor vesicles to acceptor vesicles). Type of test: biochemical. As to conditions: soluble rat MTP, 37° C., 45 min, radiolabeled triglyceride transfer. The protocol: The inhibition of MTP is measured as follows:
Inhibition of the lipid transfer activity of MTP can be quantitated by measuring the inhibition of transfer of radiolabeled triglyceride from donor vesicles to acceptor vesicles in presence of soluble rat MTP. The procedure for preparing MTP is based on the method of Wetterau and Zilversmit (Biochim. Biophys. Acta (1986) 875:610). Briefly rats are decapitated under ether anesthesia. The liver is placed in ice cold sucrose buffer (contains 0.25M sucrose, 50 mM Tris Hcl, 1 mM EDTA, 0.02% sodium azide, pH 7.4) rinsed several times with the sucrose buffer.
All subsequent steps are performed on ice. A 57% homogenate (120 g/210 mL) of rat liver in 0.25 M sucrose buffer is prepared by using a Potter-Elvehjem homogenizer. The homogenate is then centrifuged at 4° C. for 30 min at 13,000×g to remove large cellular organells. The supernatant is then centrifuged for 90 min at 105,000×g to pellet the microsomes. The pellet is resuspended in 10 mM Tris-HCl buffer pH 8.6. and centrifuged for 90 min at 105,000×g. The washed pellet is then resuspended in 1 mM Tris buffer (pH 8.6) and centrifuged for 2 hrs. […] The protein content is measured using the Sigma Lowry micro total protein method and reagents (Sigma Cat. # 690A). […]
MTP activity is measured using a MTP transfer assay. […]

Test [3] in a line: in vivo triglyceride lowering effect. The note with it: 10 mg/kg p.o. The text has this: The in vivo serum triglyceride lowering effect of the compounds of the invention can be determined by measuring their effect on triglyceride levels in mice, rats or dogs according to methodology well known in the art, e.g., in a model of pre-established hypertriglyceridemia in fructose fed rats or in normolipidemic rats.

Test [4] is described as follows: in vivo cholesterol lowering effect. The note with it: 10 mg/kg p.o. The source says:
The in vivo serum cholesterol lowering effect of the compounds of the invention can be determined by measuring their effect on cholesterol levels in mice, rats or dogs according to methodology well known in the art, e.g., in normolipidemic rats.

Consider `COC(=O)N[C@@H]1Cc2ccc(NC(=O)c3cccc(C)c3-c3ccc(C(F)(F)F)cc3)cc2C1` [13(i), (R)-6-methyl-4'-trifluoromethylbiphenyl-2-carboxylic acid (2-methoxycarbonylaminoindan-5-yl)-amide], for which the IC50 is ~0.7 nM in test [1] and ~70 nM in test [2]. Besides, the lowers plasma triglycerides result in test [3] was “lowers both plasma triglycerides and cholesterol”. Also, the lowers plasma cholesterol result in test [4] is “lowers both plasma triglycerides and cholesterol”.
For `CS(=O)(=O)N[C@@H]1Cc2ccc(NC(=O)c3cc(F)ccc3-c3ccc(C(F)(F)F)cc3)cc2C1` [13(al)], in test [1], the IC50 is ~3 nM.
As for `Cc1cccc(C(=O)Nc2ccc3c(c2)C[C@@H](NS(C)(=O)=O)C3)c1-c1ccc(C(F)(F)F)cc1` [Example 13b], the IC50 in test [1] was ~1.8 nM; in test [2] it was ~60 nM.
